Where a name gives a salt, the structure may show the parent alone.
Tests used:
WT pNL4-3 in MT-4 cells = assay: Antiviral assay in MT-4 cells (RT readout), WT NL4-3; assay type: cell-based, HIV-1; conditions: Human immunodeficiency virus 1, NL43, MT4, 96 h, read-out: Antiviral Assay IC50 (nM) NL4-3
Experimental: (§1) Cell culture, plasmids and transfections. The MT-4 T-cell line was maintained in RPMI-1640 medium supplemented with 10% (vol/vol) fetal bovine serum (FBS), 2 mM glutamine, 100 U/mL penicillin and 100 μg/mL streptomycin at 37° C. in a humidified 5% CO2 atmosphere. HeLa and 293T cells were maintained in Dulbecco's modified Eagle's medium (DMEM) supplemented with 5% (vol/vol) FBS, 2 mM glutamine, 100 U/mL penicillin and 100 μg/mL streptomycin. Molecular clones used in this study were WT pNL4-3 and the derivative encoding a Val-to-Ala mutation at SP1 residue 7, referred to as SP1-V7A. The MT-4 T-cell line was transfected the DEAE/dextran procedure; HeLa and 293T cells were transfected with linear polyethylenimine (L-PEI) or Lipofectamine 2000 (Invitrogen) as recommended by the supplier.
(§2) Antiviral assays. To produce HIV-1 stocks, 293T cells were transfected with WT pNL4-3 or the SP1-V7A derivative and culture supernatants were collected 24 h post transfection. RT-normalized virus supernatants were used to infect MT-4 cells at room temperature for 30 min. Cells were then cultured in the presence of serial dilutions of compounds. […] The IC50s in primary peripheral blood mononuclear cells (PBMCs) were calculated with a multi-clade panel of HIV-1 isolates by Southern Research Institute (Frederick, Md.). […]

[1] = tested on: pNL4-3 SP1-V7A in MT-4 cells; assay: Antiviral assay in MT-4 cells (RT readout), SP1-V7A; assay type: cell-based, HIV-1; conditions: Human immunodeficiency virus 1, MT4, 96 h, read-out: Antiviral Assay IC50 (nM) SP1 V7A
Experimental: as §1, §2

[2] = Cytotoxicity assay CellTiter-Blue, MT-4; assay type: cell-based; conditions: human; MT-4 cells, 4 to 8 days; mean ± SEM, three experiments
Experimental: (§3) Cytotoxicity assays. Cytotoxicity was measured with CellTiter-Blue® Cell Viability Assay according to the manufacturer's protocol (Promega). Two cell lines, MT-4 and HeLa, were used in this assay. Cells were incubated with serial dilution of compounds at 37° C. for 4 to 8 days and subjected to CellTiter-Blue Reagent. The fluorescent signal was measured at 560 nm Ex/590 nm Em by a plate reader (TECAN, Infinite® M1000 PRO). The 50% cytotoxic concentrations (CC50s) were defined as compound concentrations at which the fluorescent signals were reduced by 50%/relative to the no-inhibitor (DMSO only) controls using GraphPad Prism 6 software and are reported in Table 1.

[3] = Cytotoxicity assay CellTiter-Blue, HeLa; assay type: cell-based; conditions: human; HeLa cells, 4 to 8 days; mean ± SEM, three experiments
Experimental: as §3

HIV-1 clade C K3016 = assay: CA-SP1 accumulation assay (immunoblot), clade C K3016; assay type: cell-based
Experimental: (§4) Compound evaluation was performed against a panel of HIV-1 Clade C isolates K3016, pindieC1, and ZM247. The three isolates all contain the SP1-A7V. Clade B NL4-3 was included as the […] control.
(§5) Plasmids, tissue culture and transfections. HIV-1 clade B molecular clone NL4-3 and cade C clones K3016, ZM247 were obtained from Dr. Christina Ochsenbauer, University of Alabama, USA. Both K3016 and ZM247 were constructed using viral strains from South Africa. The HIV-1 clade C molecular clone pindieC1 was obtained from Dr. Uday Ranga, JNCASR, India. This clone was constructed using an HIV strain from India. HEK-293T and TZM-bl cells were propagated in Dulbecco's modified Eagle's medium (DM4EM) containing 10% fetal bovine serum (FBS). HUT-R5 cells were propagated in RPM 1640 medium supplemented with 10% FBS. For transfections, HEK-293T cells were grown in six well plates to about 80% confluency. Cells were transfected using Lipofectamine 2000 (invitrogen, USA) following manufacturer's recommendations. For viral replication assays, HUT-R5 T-cells were transfected using DEAE dextran as described in Waheed, A. A., Ono, A., and Freed, E. O.; Methods for the study of HIV-1 assembly; Methods Mol. Biol. Clifton N.J. 485, 163-184 (2009).
(§6) Preparation of viral stocks. Virus stocks were prepared by transfecting HEK-293T cells with HIV-1 DNAs (3 μg). 24 h post-transfection, the culture medium was replaced with fresh DMEM and incubated for another 2 h. Compounds tested were maintained in the culture throughout transfection. The culture supernatant was centrifuged at 845×g for 3 min to remove cellular debris. The clarified supernatants were filtered (pore size 0.45 µm filter disc) to remove residual cellular contaminants. For determination of viral infectivity, the un-concentrated virus was used to infect TZM-bl cells. For the CA-SP1 accumulation assay, the virus was pelleted by ultra-centrifugation at 210,100×g for 1 h at 4° C. using SW41Ti rotor (Beckman Coulter, USA).
(§7) CA-SP1 accumulation assay. To measure accumulation of CA-SP1, immunoblot analysis of virus-associated proteins was performed. The virus pellet was resuspended in radioimmunoprecipitation assay (RIPA) buffer (50 mM Tris-HCl pH 8.0, 150 mM sodium chloride, 1.0% NP-40, 0.5% sodium deoxycholate, 0.1% SDS) containing 1×protease inhibitor cocktail (Roche, Germany). The viral lysates were subjected to SDS-polyacrylamide gel electrophoresis (15% gel). Proteins were transferred to polyvinylidene difluoride membranes and reacted with HIV-IgG obtained from the NIH AIDS Reagent Program (catalog no. 3957) followed by incubation with HRP-conjugated anti-human secondary antibodies (GE Healthcare, UK). The proteins were visualized by enhanced chemiluminescence (Pierce, USA) and the bands were quantified using ImageJ software (http://imagej.nih.gov/ij/).

HIV-1 clade C ZM247 = assay: CA-SP1 accumulation assay (immunoblot), clade C ZM247; assay type: cell-based; conditions: head prints K3016
Experimental: as §4, §5, §6, §7

Compound | IC50 (WT pNL4-3 in MT-4 cells) [nM] | IC50 [1] [nM] | CC50 [2] [nM] | CC50 [3] [nM] | % CA-SP1 Accumulation K3016 10 nM (HIV-1 clade C K3016) [%] | % CA-SP1 Accumulation K3016 100 nM (HIV-1 clade C K3016) [%] | % CA-SP1 Accumulation K3016 10 nM (HIV-1 clade C ZM247) [%] | % CA-SP1 Accumulation K3016 100 nM (HIV-1 clade C ZM247) [%]
C=C(C)[C@@H]1CC[C@]2(CCNC3CCN(CCO)CC3)CC[C@]3(C)[C@H](CC[C@@H]4[C@@]5(C)CC[C@H](OC(=O)CC(C)(C)CC(=O)O)C(C)(C)[C@@H]5CC[C@]43C)[C@@H]12 [Compound 51f, (3β)-17-[2-[[1-(2-Hydroxyethyl)piperidin-4-yl]amino]ethyl]-28-norlup-20(29)-en-3-ol, 3-(Hydrogen 3,3-Dimethylpentanedioate), Bis(trifluoroacetate) Salt] | 21 ± 19 | 8 ± 2 | 366 ± 44 | > 1000 | – | – | – | –
C=C(C)[C@@H]1CC[C@]2(CCNCCN3CCN(S(C)(=O)=O)CC3)CC[C@]3(C)[C@H](CC[C@@H]4[C@@]5(C)CC[C@H](OC(=O)CC(C)(C)C(=O)O)C(C)(C)[C@@H]5CC[C@]43C)[C@@H]12 [Compound 51ff, (3β)-17-[2-[[2-[4-(Methylsulfonyl)piperazin-1-yl]ethyl]amino]ethyl]-28-norlup-20(29)-en-3-ol, 3-(1-Hydrogen 2,2-Dimethylbutanedioate)] | – | – | – | – | 49.8 | 54.4 | 12.8 | 19.1
C=C(C)[C@@H]1CC[C@]2(CCNCCN3CCS(=O)(=O)CC3)CC[C@]3(C)[C@H](CC[C@@H]4[C@@]5(C)CC[C@H](OC(=O)CC(C)(C)C(=O)O)C(C)(C)[C@@H]5CC[C@]43C)[C@@H]12 [Compound 51ee, (3β)-17-[[[2-[2-(1,1-Dioxothiomorpholin-4-yl)]Ethyl]Amino]Ethyl]-28-norlup-20(29)-en-3-ol, 3-(1-Hydrogen 2,2-Dimethylbutanedioate)] | – | – | – | – | 53.8 | 66.4 | 14.2 | 32.6
C=C(C)[C@@H]1CC[C@]2(CCNCCN3CCN(Cc4ccccc4)CC3)CC[C@]3(C)[C@H](CC[C@@H]4[C@@]5(C)CC[C@H](OC(=O)CC(C)(C)C(=O)O)C(C)(C)[C@@H]5CC[C@]43C)[C@@H]12 [Compound 51hh, (3β)-17-[2-[[2-[4-(Phenylmethyl)piperazin-1-yl]ethyl]amino]ethyl]-28-norlup-20(29)-en-3-ol, 3-(1-Hydrogen 2,2-Dimethylbutanedioate)] | – | – | – | – | 35.8 | 62.9 | 7.0 | 27.2
